Measurements: US4360663A, “Steroid hormone-antitumor derivatives” (Kureha Kagaku Kogyo Kabushiki Kaisha, priority 1978, dated 1982)

Key:
[1] = Acute toxicity (LD50), ICR-JCL female mice, Litchfield-Wilcoxon graph method; settings: mouse, in vivo, one dose, in olive oil, after 7 days
Description: In the measurement of LD50, eight ICR-JCL female mice (5 week age) were used as one group to breed in a transparent polycage, and each drug was dissolved in olive oil and administrated by routes of intraperitoneal injection (i.p.), oral administration (p.o.) and subcutaneous injection (s.c.), to the mice at one dose and then, their value of LD50 by Litchfield-Wilcoxon graph method is obtained after 7 days.
(§1) The tests (1), (2), (3) for various active ingredients were carried out.

[2] = system: human breast cancer cells having steroid hormone receptor; assay: Antitumor test (in vivo), human breast cancer cells implanted in BALB/C-nu/nu mice; settings: tumors excised day 25
Description: Pieces of human breast cancer cells having steroid hormone receptor was subcutaneously implanted under the arm of mice (BALB/C-nu/nu) (5 week age) to form solid tumors. After the solid tumors were established, each dispersion or solution of the active ingredient in olive oil was administered by oral dose or intraperitoneal injection each other day for 10 times or every days for 20 times. Twenty five days from the initial administration, the tumors were excised. Efficiency of inhibition of tumor proliferation was measured from (A) each average weight of excised tumors for 10 mice (the active ingredient was administrated) and (B) each average weight of excised tumors for 10 control mice. [formula]
as §1

Compound | LD50 at 168 h ([1]; po) [mg/kg] | Inhibitory effect of tumor, efficiency ([2]; p.o., 10 mg/kg) [%] | LD50 at 168 h ([1]; ip) [mg/kg] | Inhibitory effect of tumor, efficiency ([2]; p.o., 50 mg/kg) [%] | further results
COc1cccc2c1C(=O)c1c(O)c3c(c(O)c1C2=O)C[C@@](O)(C(=O)CO)C[C@@H]3O[C@H]1C[C@H](N)[C@H](O)[C@H](C)O1 [Test No. 13 (Table 18), 3-glycoloyl-1,2,3,4,6,11-hexahydro-3,5,12-trihydroxy-10-methoxy-6,11-dioxo-1-naphthacenyl-3'-amino-2',3',6'-trideoxy-α-L-lyxo-hexapyranoside, reference compound] | 730 | 20 | – | – | Inhibitory effect of tumor, efficiency ([2]; i.p., 10 mg/kg): 20%
CN(N=O)C(=O)N[C@H]1C(O)O[C@H](CO)[C@@H](O)[C@@H]1O (stereo partly drawn) [Test No. 5 (Table 18), 2-(N'--methyl-N'--nitrosoureido)-2-deoxy-D-glucopyranoside, reference compound] | > 1000 | 69 | 264 | – | Inhibitory effect of tumor, efficiency ([2]; i.p., 10 mg/kg): 20%; Inhibitory effect of tumor, efficiency ([2]; i.p., 50 mg/kg): 63%; Inhibitory effect of tumor, efficiency ([2]; p.o., 40 mg/kg): 86%
C[C@]12CC[C@@H]3c4ccc(OC(=O)c5ccccc5)cc4CC[C@H]3[C@@H]1CC[C@@H]2OC(=O)Cn1cc(F)c(=O)[nH]c1=O [Test No. 8 (Table 18), 3-benzoyloxy-1,3,5(10)-estratriene-17β-[5-fluoro-2,4-dioxo-pyrimidin-1-yl]acetate] | > 3000 | – | 680 | – | Inhibitory effect of tumor, efficiency ([2]; i.p., 15 mg/kg): 83%; Inhibitory effect of tumor, efficiency ([2]; i.p., 30 mg/kg): 90%; Inhibitory effect of tumor, efficiency ([2]; p.o., 15 mg/kg): 70%; Inhibitory effect of tumor, efficiency ([2]; p.o., 30 mg/kg): 81%
COc1cccc2c1C(=O)c1c(O)c3c(c(O)c1C2=O)C[C@@](O)(C(=O)CO)C[C@@H]3O[C@H]1C[C@H](NCC(=O)O[C@H]2CC[C@H]3[C@@H]4CCc5cc(O)ccc5[C@H]4CC[C@]23C)[C@H](O)[C@H](C)O1 [Test No. 14 (Table 18), 3-glycoloyl-1,2,3,4,6,11-hexahydro-3,5,12-trihydroxy-10-methoxy-6,11-dioxo-1-naphthacenyl-3'-[3-hydroxy-1,3,5(10)-estratriene-17β-oxycarbonylmethyl]amino-2',3',6'-trideoxy-α-L-lyxo-hexapyranoside] | > 3000 | 63 | – | 71 | –
O=NN(CCCl)C(=O)N[C@H]1C(O)O[C@H](CO)[C@@H](O)[C@@H]1O (some centres unmarked) [Test No. 1 (Table 18), reference compound] | 210 | 13 | 48 | – | Inhibitory effect of tumor, efficiency ([2]; i.p., 3 mg/kg): 18%; Inhibitory effect of tumor, efficiency ([2]; i.p., 10 mg/kg): 58%; Inhibitory effect of tumor, efficiency ([2]; p.o., 40 mg/kg): 60%
COc1cccc2c1C(=O)c1c(O)c3c(c(O)c1C2=O)C[C@@](O)(C(C)=O)C[C@@H]3O[C@H]1C[C@H](NCC(=O)O[C@H]2CC[C@H]3[C@@H]4CCc5cc(O)ccc5[C@H]4CC[C@]23C)[C@H](O)[C@H](C)O1 [compound 19] | > 2000 | – | > 15 | – | Inhibitory effect of tumor, efficiency ([2]; i.p., 0.1 mg/kg): 90%; Inhibitory effect of tumor, efficiency ([2]; i.p., 0.5 mg/kg): 99%; Inhibitory effect of tumor, efficiency ([2]; p.o., 1 mg/kg): 72%; Inhibitory effect of tumor, efficiency ([2]; p.o., 5 mg/kg): 85%
CCC(=O)Oc1ccc2c(c1)CC[C@@H]1[C@@H]2CC[C@]2(C)[C@@H](OC(=O)Cn3cc(F)c(=O)[nH]c3=O)CC[C@@H]12 [Test No. 10 (Table 18), 3-propionyloxy-1,3,5(10)-estratriene-17β-[5-fluoro-2,4-dioxo-pyrimidin-1-yl]acetate] | > 3000 | – | 740 | – | Inhibitory effect of tumor, efficiency ([2]; i.p., 15 mg/kg): 81%; Inhibitory effect of tumor, efficiency ([2]; i.p., 30 mg/kg): 91%; Inhibitory effect of tumor, efficiency ([2]; p.o., 15 mg/kg): 72%; Inhibitory effect of tumor, efficiency ([2]; p.o., 30 mg/kg): 83%
C[C@]12CC[C@@H]3c4ccc(OC(=O)c5ccccc5)cc4CC[C@H]3[C@@H]1CC[C@@H]2OC(=O)COCCNc1nc(N2CC2)nc(N2CC2)n1 [compound 20] | > 2000 | – | > 15 | – | Inhibitory effect of tumor, efficiency ([2]; i.p., 0.1 mg/kg): 74%; Inhibitory effect of tumor, efficiency ([2]; p.o., 1 mg/kg): 78%; Inhibitory effect of tumor, efficiency ([2]; p.o., 5 mg/kg): 87%
CC(=O)Oc1ccc2c(c1)CC[C@@H]1[C@@H]2CC[C@]2(C)[C@@H](OC(=O)Cn3cc(F)c(=O)[nH]c3=O)CC[C@@H]12 [Test No. 9 (Table 18), 3-acetoxy-1,3,5(10)-estratriene-17β-[5-fluoro-2,4-dioxo-pyrimidin-1-yl]acetate] | > 3000 | – | 800 | – | Inhibitory effect of tumor, efficiency ([2]; i.p., 15 mg/kg): 84%; Inhibitory effect of tumor, efficiency ([2]; i.p., 30 mg/kg): 93%; Inhibitory effect of tumor, efficiency ([2]; p.o., 15 mg/kg): 72%; Inhibitory effect of tumor, efficiency ([2]; p.o., 30 mg/kg): 87%
O=c1[nH]cc(F)c(=O)[nH]1 [Test No. 8 (Table 17), 5-fluoro-2,4-dioxo-pyrimidine, reference compound] | 900 | – | 242 | – | Inhibitory effect of tumor, efficiency ([2]; i.p., 10 mg/kg): 30%; Inhibitory effect of tumor, efficiency ([2]; i.p., 20 mg/kg): 50%; Inhibitory effect of tumor, efficiency ([2]; p.o., 15 mg/kg): 30%; Inhibitory effect of tumor, efficiency ([2]; p.o., 30 mg/kg): 60%
COc1cccc2c1C(=O)c1c(O)c3c(c(O)c1C2=O)C[C@@](O)(C(=O)CO)C[C@@H]3O[C@H]1C[C@H](NCC(=O)O[C@H]2CC[C@H]3[C@@H]4CCc5cc(OC(C)=O)ccc5[C@H]4CC[C@]23C)[C@H](O)[C@H](C)O1 [Test No. 15 (Table 18), 3-glycoloyl-1,2,3,4,6,11-hexahydro-3,5,12-trihydroxy-10-methoxy-6,11-dioxo-1-naphthacenyl-3'-[3-acetoxy-1,3,5(10)-estratriene-17β-oxycarbonylmethyl]amino-2',3',6'-trideoxy-α-L-lyxo-hexapyranoside] | > 3000 | 53 | – | 79 | –
COc1cccc2c1C(=O)c1c(O)c3c(c(O)c1C2=O)C[C@@](O)(C(=O)CO)C[C@@H]3O[C@H]1C[C@H](NCC(=O)O[C@H]2CC[C@H]3[C@@H]4CCc5cc(OC(=O)c6ccccc6)ccc5[C@H]4CC[C@]23C)[C@H](O)[C@H](C)O1 [compound 17] | > 3000 | 70 | – | 79 | –
CN(Cc1cnc2nc(N)nc(N)c2n1)c1ccc(C(=O)N[C@@H](CCC(=O)O)C(=O)O)cc1 [Test No. 12 (Table 18), 4-amino-N^10 --methylpteroyl glutamate, reference compound] | 230 | 31 | 94 | 42 | Inhibitory effect of tumor, efficiency ([2]; i.p., 5 mg/kg): 48%; Inhibitory effect of tumor, efficiency ([2]; i.p., 20 mg/kg): 65%
CCC(=O)Oc1ccc2c(c1)CC[C@@H]1[C@@H]2CC[C@]2(C)[C@@H](OC(=O)CN[C@H]3C[C@H](O[C@H]4C[C@](O)(C(=O)CO)Cc5c(O)c6c(c(O)c54)C(=O)c4c(OC)cccc4C6=O)O[C@@H](C)[C@H]3O)CC[C@@H]12 [compound 16] | > 3000 | 69 | – | 83 | –
C[C@]12CC[C@@H]3c4ccc(O)cc4CC[C@H]3[C@@H]1CC[C@@H]2OC(=O)COC(=O)[C@H]1OC(O)[C@H](NC(=O)N(CCCl)N=O)[C@@H](O)[C@@H]1O (stereo partly drawn) [Test No. 2 (Table 18), 3-hydroxy-1,3,5(10)-estratriene-17β-[2-{N'-(2-chloroethyl)-N'-nitrosoureido}-2-deoxy-D-glucuronoyloxy]acetate] | > 1000 | 73 | > 180 | – | Inhibitory effect of tumor, efficiency ([2]; i.p., 1 mg/kg): 90%; Inhibitory effect of tumor, efficiency ([2]; i.p., 3 mg/kg): 92%; Inhibitory effect of tumor, efficiency ([2]; p.o., 40 mg/kg): 89%
